Converted amounts (≈) assume the structure as drawn. Where two headings read alike, the source gives them in different places. *1 amine or outer side, *2 acyl side, *3 side chain or, on linkers, in order; H or OH if unused. Where a SMILES comes first, the peptide text is derived from it. [ ]: non-standard residue; d: D form. The star is where a group is joined. ξ: configuration not given here. hPhe = N[C@@H](CCc1ccccc1)C(=O)O; Morpholide = C1CN(*)CCO1; ξF = NC(Cc1ccccc1)C(=O)O; CO = O=C([*:1])[*:2]; CH2F = FC*
Key:
[1] = biological target: T1, Cathepsin B, purified from human liver (Homo sapiens, UniProt P07858); assay: In vitro evaluation of inhibitors with purified cathepsin B; type: biochemical
T1 construct: Cathepsin B, purified from human liver; purchased Enzyme Systems Products (Dublin, Calif.); host or cells: human liver (tissue-purified)
Protocol: Enzyme: Cathepsin B, purified from human liver, is from Enzyme Systems Products (Dublin, Calif.). The activity is 50 mU per ml at 30° C., in 52 mM sodium phosphate, pH 6.2, 31 mM DTT, 2.1 mM EDTA, with 0.2 mM Z—Arg—Arg-7-amino-4-trifluoromethyl-coumarin as a substrate. Specific activity is 8330 mU per mg protein. (1 mU=1 nmol per min.)
Substrate Boc—Leu—Arg—Arg-7-amino-4-trifluoromethyl-coumarin-2HBr is from Enzyme Systems Products (Dublin, Calif.) and is known to be a specific substrate for cathepsin B. A 20 mM solution is made in DMF and stored at […].
Candidate inhibitors are dissolved in DMF and diluted to 20 mM and stored at […]. Dilutions are made in assay buffer.
The percent inhibition and the inhibitor concentration at which the enzyme is 50% inhibited (IC50) are determined as follows. Five μl of assay buffer (50 mM potassium phosphate pH 6.2, 2 mM EDTA, 5 mM DTT) on ice for 30 min. The inhibition is initiated by the addition of […] inhibitor each to the 480 μl aliquots. The 485 μl aliquot with enzyme is used as a control and thus receives no inhibitor. The enzyme/inhibitor mixtures are incubated 10 min. on ice and assayed for cathepsin B activity as follows:
Cathepsin B assay: To 490 μl of pre-incubated inhibitor/enzyme mixtures in assay buffer in 0.5 ml cuvette at 37° is added 10 μl of the substrate. Final inhibitor concentrations become 2000 nM, 200 nM, and 20 nM for the 200 μM, 20 μM and 2 μM stock concentrations, respectively. Activity is followed by release of free AFC over 5 min. The change in fluorescence is (fluorescence units at t=6)−(fluorescence units at t=1) with a Perkin-Elmer LS-5B spectrofluorometer (ex=400 nm, em=505 nm). The percent inhibition is determined by comparing the change in fluorescence units of the three sample concentrations of inhibited enzyme to the change in fluorescence units of the control enzyme. The percent inhibition is calculated as:
100−(fl. units of sample/fl. units of control×100).
The IC50 is ascertained by plotting percent inhibition vs. inhibitor concentration on the log scale. The IC50 is the concentration of the inhibitor (nM) at which the enzyme is inhibited by 50%.

Pneumocystis carinii = assay: In vitro inhibition of Pneumocystis carinii in culture with human embryonic lung fibroblast monolayers; type: cell-based
Protocol: The percent of inhibition is calculated as 100−(the number of P. carinii trophozoites in a treated cell culture/number of trophosites of the control)×100.
Methods. The drugs dissolved in dimethyl sulfoxide were diluted to concentrations of 10 μg/ml for compound 3 and […] for compound 9 in minimum essential medium used for the culture of human embryonic lung fibroblasts. […] Cell cultures in 24-well plates were innoculated with P. carinii trophozoites (final concentration, about 7×10^5 per ml) obtained from infected rat lungs. Each culture plate contained untreated and treated wells. Plates were incubated at 35° C. in a gas mixture of 5% O2, 10% CO2, 85% N2 for up to 7 days. Plates were sampled on days 1, 3, 5 and 7 by removal of 10 μl amounts after agitation of the cultures. The samples were placed on slides in 1-cm^2 areas, fixed in methanol and stained with Giemsa stain; and then they were examined microscopically as unknowns by two individuals. For each parameter there were four wells, making eight values for each parameter. Standard errors range from 3-13%. Cultures were spiked with fresh drugs on days 2, 4 and 6.

T. cruzi [2] = assay: Inhibition of T. cruzi in infected cells, cell line BHK; type: cell-based; conditions: days before cell monolayer is destroyed by infection; 20 μM, daily change of medium plus inhibitor
Protocol: (§1) Survival time is measured in days before the cell monolayer is destroyed by the infection. Irradiated BHK and J774 cells (six well plates) were infected with T. cruzi and simultaneously treated with 20 μM (3 ml total volume) with daily change of culture medium+plus inhibitor).
(§2) Cultivation and preparation of T. cruzi. Cloned and uncloned populations were derived from the strains Brasil, and CA-I and are cryopreserved in liquid nitrogen. Axenically cultured epimastigotes are maintained in exponential growth phase by weekly passage in Brain Heart Infusion-Tryptose medium (BHT media as given in Cazzulo, Cazzulo, Martinez, and Cazzulo, Some Kinetic Properties of a Cysteine Proteinase (Cruzipain) from Trypanosoma Cruzi. 33 Mol. Biochem. Parasitol. 33-42 (1990)), supplemented with […] 10% (v/v) heat inactivated fetal calf serum (FCS). Different host cell lines (J774 mouse macrophage, BHK, etc.) are cultured with RPMI-1640 supplemented with 5% FCS at 37° in a humidified atmosphere containing 5% CO2. Trypomastigotes liberated from the host cells are used to infect new cultures for serial maintenance of the parasite in cell culture. The protocols used for the in vitro assays of cysteine protease inhibitors are essentially as described by Harth, Andrews, Mills, Engel, Smith, and McKerrow, Peptide-Fluoromethyl Ketones Arrest Intracellular Replication and Intercellular Transmission of Trypanosoma Cruzi. 58 Mol. Biochem. Parasitol. 17-24 (1993), with the exception that in some experiments, the host cells are irradiated (2400 RADs) before infection to prevent them from dividing.

T. cruzi [3] = assay: Inhibition of T. cruzi in infected cells, cell line J774; type: cell-based; conditions: days before cell monolayer is destroyed by infection; 20 μM, daily change of medium plus inhibitor
Protocol: as §1, §2

[4] = not given; remark: listed apart in the source
[5] = inhibitors with other heterocycles, read-out: IC5 Cathepsin B Inhibition
[6] = purified cathepsin B, read-out: IC50 Cat B

IC50 [1, 5]	IC50 [1, 6]	Compound	other results
229 nM	–	CCC1OC(=O)C(OCC(=O)C(CCc2ccccc2)NC(=O)C(Cc2ccccc2)NC(=O)N2CCOCC2)=C1C (stereo not drawn)	–
219 nM	–	Cc1ccc2cccc(OCC(=O)[C@H](CCc3ccccc3)NC(=O)[C@H](Cc3ccccc3)NC(=O)N3CCOCC3)c2n1	–
282 nM	–	Cc1cc(OCC(=O)[C@H](CCc2ccccc2)NC(=O)[C@H](Cc2ccccc2)NC(=O)N2CCOCC2)nc2ccccc12	–
1800 nM	–	O=C(COc1ncnc2ccccc12)[C@H](CCc1ccccc1)NC(=O)[C@H](Cc1ccccc1)NC(=O)N1CCOCC1	–
569 nM	–	O=C(COc1nc2ccccc2[nH]1)[C@H](CCc1ccccc1)NC(=O)[C@H](Cc1ccccc1)NC(=O)N1CCOCC1	–
457 nM	–	O=C(COc1nccc2ccccc12)[C@H](CCc1ccccc1)NC(=O)[C@H](Cc1ccccc1)NC(=O)N1CCOCC1	–
4500 nM	–	Cc1cc(=O)oc2cc(OCC(=O)[C@H](CCc3ccccc3)NC(=O)[C@H](Cc3ccccc3)NC(=O)N3CCOCC3)ccc12	–
4500 nM	–	O=C(COc1ccc2ccc(=O)oc2c1)[C@H](CCc1ccccc1)NC(=O)[C@H](Cc1ccccc1)NC(=O)N1CCOCC1	–
252 nM	–	O=C(COc1cc2ccccc2o1)[C@H](CCc1ccccc1)NC(=O)[C@H](Cc1ccccc1)NC(=O)N1CCOCC1	–
385 nM	–	Cc1occc(=O)c1OCC(=O)[C@H](CCc1ccccc1)NC(=O)[C@H](Cc1ccccc1)NC(=O)N1CCOCC1	–
21000 nM	–	O=C(COc1nc2ccccc2s1)[C@H](CCc1ccccc1)NC(=O)[C@H](Cc1ccccc1)NC(=O)N1CCOCC1	–
79000 nM	–	O=C(COc1cccs1)[C@H](CCc1ccccc1)NC(=O)[C@H](Cc1ccccc1)NC(=O)N1CCOCC1	–
2190 nM	–	CCOC(=O)c1c(C)noc1OCC(=O)[C@H](CCc1ccccc1)NC(=O)[C@H](Cc1ccccc1)NC(=O)N1CCOCC1	–
5600 nM	–	C[n+]1ccc2ccccc2c1OCC(=O)[C@H](CCc1ccccc1)NC(=O)[C@H](Cc1ccccc1)NC(=O)N1CCOCC1	–
–	94 nM	O=C1CC(=O)C(c2ccccc2)=C1OCC(=O)[C@H](CCc1ccccc1)NC(=O)[C@H](Cc1ccccc1)NC(=O)N1CCOCC1 [Compound 1, N-Morpholinecarbonyl-L-phenylalanyl-L-homophenylalanine-α-(4-oxy-5-phenyl-4-cyclopentene-1,3-dione) methyl ketone]	–
–	141 nM	O=C1OC(C(O)CO)C(OCC(=O)C(CCc2ccccc2)NC(=O)C(Cc2ccccc2)NC(=O)N2CCOCC2)=C1O [Compound 2, N-Morpholinecarbonyl-L-phenylalanyl-L-homophenylalanyl-α-(4-ascorbityl) methyl ketone]	–
–	112 nM	Cc1cc(OCC(=O)[C@H](CCc2ccccc2)NC(=O)[C@H](Cc2ccccc2)NC(=O)N2CCOCC2)cc(=O)o1 [Compound 3, N-Morpholinecarbonyl-L-phenylalanyl-L-homophenylalanyl-α-(4-oxy-6-methyl-2-pyrone) methyl ketone]	inhibition at 10 µg/mL (Pneumocystis carinii; 24 h, Day 1, 10 μg/ml for compound 3, 10 μM/ml for compound 9, read-out: Percent Inhibition, Day 1): 23%; inhibition at 10 µg/mL (Pneumocystis carinii; 48 h, Day 2, 10 μg/ml for compound 3, 10 μM/ml for compound 9, read-out: Percent Inhibition, Day 2): 44%; inhibition at 10 µg/mL (Pneumocystis carinii; 72 h, Day 3, 10 μg/ml for compound 3, 10 μM/ml for compound 9, read-out: Percent Inhibition, Day 3): 39%; inhibition at 10 µg/mL (Pneumocystis carinii; 96 h, Day 4, 10 μg/ml for compound 3, 10 μM/ml for compound 9, read-out: Percent Inhibition, Day 4): 13%
–	567 nM	CC1CC(OCC(=O)C(CCc2ccccc2)NC(=O)C(Cc2ccccc2)NC(=O)N2CCOCC2)=CC(=O)O1 [Compound 4, N-Morpholinecarbonyl-L-phenylalanyl-L-homophenylalanyl-α-(4-oxy-5,6-dihydro-6-methyl-2H-pyran-2-one) methyl ketone]	melting point: 74 to 78 °C
–	400 nM	Cc1cc(OCC(=O)[C@H](CCc2ccccc2)NC(=O)[C@H](CC(C)C)NC(=O)N2CCOCC2)cc(=O)o1 [Compound 5]	melting point: 70 to 75 °C
–	45 nM	O=C(COc1cc(=O)oc2ccccc12)[C@H](CCc1ccccc1)NC(=O)[C@H](Cc1ccccc1)NC(=O)N1CCOCC1 [Compound 6, N-Morpholinecarbonyl-L-phenylalanyl-L-homophenylalanyl-α-(4-oxy-coumarin) methyl ketone]	melting point: 115 to 119 °C; Survival Time, Cell line BHK (T. cruzi [2]): ≥ 16 days; Survival Time, Cell line J774 (T. cruzi [3]): ≥ 16 days
–	25 nM	Cc1cc(OCC(=O)[C@H](CCCCN)NC(=O)[C@H](Cc2ccccc2)NC(=O)N2CCOCC2)cc(=O)o1 [Compound 7]	melting point: 151 to 155 °C
–	83 nM	COc1ccc(C[C@H](NC(=O)N2CCOCC2)C(=O)N[C@@H](CCCCN)C(=O)COc2cc(C)oc(=O)c2)cc1 [Compound 8]	melting point: 140 to 142 °C
–	36 nM	O=C1OCC(OCC(=O)[C@H](CCc2ccccc2)NC(=O)[C@H](Cc2ccccc2)NC(=O)N2CCOCC2)=C1c1ccccc1 [Compound 9, N-Morpholinecarbonyl-L-phenylalanyl-L-homophenylalanyl-α-(4-oxy-3-phenyl-dihydrofuran-2-one) methyl ketone]	melting point: 114 to 116 °C; Survival Time, Cell line BHK (T. cruzi [2]): 6 days; Survival Time, Cell line J774 (T. cruzi [3]): 4 days
–	8 nM	COc1ccc(C[C@H](NC(=O)N2CCOCC2)C(=O)N[C@@H](CCCCN)C(=O)COC2=C(c3ccccc3)C(=O)OC2)cc1 [Compound 10, N-Morpholinecarbonyl-L-tryosyl (O-methyl)-L-lysyl-(4-oxy-3-phenyl-dihydrofuran-2-one) methyl ketone]	melting point: 140 to 142 °C
–	5 nM	NCCCC[C@H](NC(=O)[C@H](Cc1ccccc1)NC(=O)N1CCOCC1)C(=O)COC1=C(c2ccccc2)C(=O)OC1 [Compound 11, N-Morpholinecarbonyl-L-phenylalanyl-L-lysyl-α-(4-oxy-3-phenyl-dihydrofuran-2-one) methyl ketone]	melting point: 140 to 145 °C
–	–	O=C(N[C@@H](CCc1ccccc1)C(=O)CF)C(Cc1ccccc1)NC(=O)N1CCOCC1 (stereo partly drawn) [Mu—Phe—HPhe—CH2F, Morpholine-carbonyl-phenylalanyl-homophenylalanyl-fluoromethylketone, reference compound] ({Morpholide-CO}-[ξF]-[hPhe]-CH2F)	Survival Time, Cell line BHK (T. cruzi [2]): ≥ 16 days; aqueous solubility ([4]; 20° C., distilled and deionized water): 140 µg/mL (≈ 307 µM); Survival Time, Cell line J774 (T. cruzi [3]): ≥ 16 days
–	–	benzoxycarbonyl-phenylalanyl-alanylfluoromethyl ketone [Z—Phe—Ala—CH2F]	aqueous solubility ([4]; 14° C.): 45 µg/mL
